Broadly, the Ki is a measure of affinity in units of concentration, obtained from inhibition or displacement. Read a low Ki as tighter binding. By Cmax is commonly meant the highest concentration seen after dosing. What is called bioavailability is dose-corrected exposure relative to a reference, in per cent. One may read the IC50 as the concentration that inhibits the measured activity by half.

The text below walks through data of ChEMBL document CHEMBL3797188, “Piperidine derivatives as nonprostanoid IP receptor agonists 2” (Bioorg Med Chem Lett, 2016).

Prostaglandin E2 receptor EP4 subtype, sequence (P35408 whole entry): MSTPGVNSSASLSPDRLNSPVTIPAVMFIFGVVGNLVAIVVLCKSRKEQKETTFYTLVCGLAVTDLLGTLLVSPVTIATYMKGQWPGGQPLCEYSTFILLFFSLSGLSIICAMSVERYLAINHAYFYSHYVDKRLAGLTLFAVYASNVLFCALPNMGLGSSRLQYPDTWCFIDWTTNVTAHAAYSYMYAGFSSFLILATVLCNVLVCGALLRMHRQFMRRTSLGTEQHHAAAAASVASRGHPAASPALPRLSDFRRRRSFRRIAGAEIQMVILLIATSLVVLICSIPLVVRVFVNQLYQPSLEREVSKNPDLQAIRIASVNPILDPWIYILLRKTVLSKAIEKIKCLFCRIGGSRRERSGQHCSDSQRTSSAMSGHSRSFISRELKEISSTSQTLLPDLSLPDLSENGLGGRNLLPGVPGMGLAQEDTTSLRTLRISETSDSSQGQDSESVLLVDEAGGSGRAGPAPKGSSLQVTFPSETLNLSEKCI
Prostacyclin receptor, sequence (P43119 whole entry): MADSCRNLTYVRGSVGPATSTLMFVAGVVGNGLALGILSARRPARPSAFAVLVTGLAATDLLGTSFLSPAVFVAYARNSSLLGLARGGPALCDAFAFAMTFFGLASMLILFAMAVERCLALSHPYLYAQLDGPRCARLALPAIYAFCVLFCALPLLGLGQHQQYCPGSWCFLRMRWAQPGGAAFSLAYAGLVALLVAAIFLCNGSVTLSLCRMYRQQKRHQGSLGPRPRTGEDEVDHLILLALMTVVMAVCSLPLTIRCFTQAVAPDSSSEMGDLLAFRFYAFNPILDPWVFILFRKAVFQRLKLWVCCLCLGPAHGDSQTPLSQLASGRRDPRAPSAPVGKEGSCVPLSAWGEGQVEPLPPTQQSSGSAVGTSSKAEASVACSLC

One data set has as its target Prostaglandin E2 receptor EP4 subtype (Homo sapiens, UniProt P35408). Put plainly: Binding affinity to human EP4 receptor.
Conditions: not given
With `Cc1ccc(N(CCN2CCC(OCC(=O)O)CC2)C(=O)c2ccc3c(c2)OCO3)cc1.Cl.O`, the Ki is above 50000 nM.

For the next data set, the target named is T1, Thromboxane A2 receptor (Homo sapiens, UniProt P21731).
T1 sequence (P21731 whole entry): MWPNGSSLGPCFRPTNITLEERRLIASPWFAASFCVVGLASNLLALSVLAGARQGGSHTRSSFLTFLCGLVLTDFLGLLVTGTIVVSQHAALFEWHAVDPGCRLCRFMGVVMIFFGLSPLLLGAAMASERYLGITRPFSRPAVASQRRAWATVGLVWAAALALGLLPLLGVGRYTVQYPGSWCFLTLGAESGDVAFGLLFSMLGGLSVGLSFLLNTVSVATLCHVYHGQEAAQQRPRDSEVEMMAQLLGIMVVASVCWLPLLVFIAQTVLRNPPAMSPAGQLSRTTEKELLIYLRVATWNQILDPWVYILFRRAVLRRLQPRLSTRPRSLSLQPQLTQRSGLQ
The data set is described as follows: Binding affinity to human TP receptor.
Conditions: not given
In the case of `Cc1ccc(N(CCN2CCC(OCC(=O)O)CC2)C(=O)c2ccc3c(c2)OCO3)cc1.Cl.O`, the Ki is above 50000 nM.

In a further data set the target is T2, Prostaglandin E2 receptor EP3 subtype (Homo sapiens, UniProt P43115).
T2 sequence (P43115 whole entry): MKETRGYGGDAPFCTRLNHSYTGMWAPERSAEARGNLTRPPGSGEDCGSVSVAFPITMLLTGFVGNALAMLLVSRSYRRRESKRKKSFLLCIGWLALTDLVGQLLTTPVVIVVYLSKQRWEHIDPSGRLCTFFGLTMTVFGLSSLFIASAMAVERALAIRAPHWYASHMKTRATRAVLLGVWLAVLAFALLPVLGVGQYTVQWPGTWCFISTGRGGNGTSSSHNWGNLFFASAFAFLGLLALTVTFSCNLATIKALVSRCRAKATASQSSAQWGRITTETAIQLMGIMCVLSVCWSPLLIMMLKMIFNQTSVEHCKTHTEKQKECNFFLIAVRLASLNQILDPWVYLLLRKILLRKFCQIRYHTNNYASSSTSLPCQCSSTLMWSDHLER
Put plainly: Binding affinity to human EP3 receptor.
Conditions: not given
`Cc1ccc(N(CCN2CCC(OCC(=O)O)CC2)C(=O)c2ccc3c(c2)OCO3)cc1.Cl.O` returned an inhibitory constant (Ki) above 50000 nM.

A further data set concerns the target Prostacyclin receptor (Homo sapiens, UniProt P43119). Put plainly: Binding affinity to human IP receptor.
Conditions: not given
Turning to `Cc1ccc(N(CCN2CCC(OCC(=O)O)CC2)C(=O)c2ccc3c(c2)OCO3)cc1.Cl.O`, the Ki stood at 400 nM.

System in another data set: not listed separately
The data set is described as follows: Cmax in fasted dog at 0.5 mg/kg, po. Type of data set: ADME, organism-based, Canis lupus familiaris. To be noted: in vivo. Also noted: dose 0.5 mg/kg, route oral.
Take `Cc1ccc(N(CCN2CCC(OCC(=O)O)CC2)C(=O)c2ccc3c(c2)OCO3)cc1.Cl.O`: the concentration peaked (Cmax) at 130 ng/mL.

The target in another data set is Prostaglandin E2 receptor EP2 subtype (Homo sapiens, UniProt P43116). The data set is described as follows: Binding affinity to human EP2 receptor.
Prostaglandin E2 receptor EP2 subtype, sequence (P43116 whole entry): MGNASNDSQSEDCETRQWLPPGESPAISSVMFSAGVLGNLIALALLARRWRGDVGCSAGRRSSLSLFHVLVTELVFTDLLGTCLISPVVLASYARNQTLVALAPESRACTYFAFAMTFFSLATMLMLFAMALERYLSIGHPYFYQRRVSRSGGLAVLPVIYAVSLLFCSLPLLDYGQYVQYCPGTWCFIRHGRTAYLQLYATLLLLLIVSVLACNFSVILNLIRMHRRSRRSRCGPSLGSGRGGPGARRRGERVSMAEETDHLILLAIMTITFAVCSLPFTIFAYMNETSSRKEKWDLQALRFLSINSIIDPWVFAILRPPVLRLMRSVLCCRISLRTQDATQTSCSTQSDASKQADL
Conditions: not given
For the molecule `Cc1ccc(N(CCN2CCC(OCC(=O)O)CC2)C(=O)c2ccc3c(c2)OCO3)cc1.Cl.O`, the Ki was above 50000 nM.

Another data set deals with Prostaglandin F2-alpha receptor (Homo sapiens, UniProt P43088). Put plainly: Binding affinity to human FP receptor.
Prostaglandin F2-alpha receptor, sequence (P43088 whole entry): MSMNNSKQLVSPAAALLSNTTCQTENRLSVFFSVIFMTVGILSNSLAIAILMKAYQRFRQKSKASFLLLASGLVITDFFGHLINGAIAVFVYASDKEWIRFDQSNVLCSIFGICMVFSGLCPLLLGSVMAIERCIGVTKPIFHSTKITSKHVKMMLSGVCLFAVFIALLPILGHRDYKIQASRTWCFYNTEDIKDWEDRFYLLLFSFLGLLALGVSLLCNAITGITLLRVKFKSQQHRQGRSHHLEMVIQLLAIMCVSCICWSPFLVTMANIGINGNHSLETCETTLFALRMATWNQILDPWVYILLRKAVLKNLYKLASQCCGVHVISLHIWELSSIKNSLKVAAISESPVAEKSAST
Conditions: not given
`Cc1ccc(N(CCN2CCC(OCC(=O)O)CC2)C(=O)c2ccc3c(c2)OCO3)cc1.Cl.O` had a Ki above 50000 nM.

System in the next data set: not listed separately
Put plainly: Oral bioavailability in fasted dog at 0.5 mg/kg. The format is ADME, organism-based, Canis lupus familiaris. To be noted: in vivo.
As to `Cc1ccc(N(CCN2CCC(OCC(=O)O)CC2)C(=O)c2ccc3c(c2)OCO3)cc1.Cl.O`, the bioavailability amounted to 76%.

System in a further data set: not listed separately
The data set is described as follows: Antiplatelet activity in human platelet rich plasma assessed as inhibition of ADP-induced platelet aggregation. Type of data set: functional, cell-free.
Conditions: not given
For the molecule `O=C(O)COC1CCN(CCN(C(=O)c2ccccc2)c2ccc(Cl)cc2)CC1`, the IC50 came to 440 nM. On the same count and under the same terms, the value for `Cc1ccc(N(CCN2CCC(OCC(=O)O)CC2)C(=O)c2ccccc2)cc1` was 220 nM. On the same count and under the same terms, the value for `Cc1ccc(N(CCN2CCC(OCC(=O)O)CC2)C(=O)c2ccc(C(F)(F)F)cc2)cc1` was above 10000 nM. Still for that read-out and setting: under `COc1ccc(OC)c(C(=O)N(CCN2CCC(OCC(=O)O)CC2)c2ccc(C)cc2)c1` stands above 3000 nM. Consider `Cc1ccc(N(CCN2CCC(OCC(=O)O)CC2)C(=O)c2cccc(C(F)(F)F)c2)cc1`, for which the IC50 worked out at 20000 nM.

On to `O=C(O)COC1CCN(CCN(C(=O)c2cccc(C(F)(F)F)c2)c2ccc(Cl)cc2)CC1`, for which the concentration for half-maximal inhibition (IC50) was above 10000 nM. Still for that read-out and setting: under `Cc1ccc(N(CCN2CCC(OCC(=O)O)CC2)C(=O)c2cccc(Cl)c2)cc1` stands 100 nM; under `Cc1ccc(N(CCN2CCC(OCC(=O)O)CC2)C(=O)c2ccc(-c3ccccc3)cc2)cc1`, above 10000 nM. Take `COc1ccc(C(=O)N(CCN2CCC(OCC(=O)O)CC2)c2ccc(Cl)cc2)cc1`: the IC50 is 3100 nM. On the same count and under the same terms, under `COc1ccc(C(=O)N(CCN2CCC(OCC(=O)O)CC2)c2ccc(C)cc2)cc1OC` stands above 3000 nM; under `Cc1ccc(N(CCN2CCC(OCC(=O)O)CC2)C(=O)c2ccc(Cl)cc2)cc1`, 690 nM; under `Cc1ccc(N(CCN2CCC(OCC(=O)O)CC2)C(=O)c2ccc(F)cc2)cc1`, 970 nM. On the same count and under the same terms, the value for `O=C(O)COC1CCN(CCN(C(=O)c2ccc(F)cc2)c2ccc(Cl)cc2)CC1` was 2000 nM; that for `O=C(O)COC1CCN(CCN(C(=O)c2cccc(Cl)c2)c2ccc(Cl)cc2)CC1` was 350 nM; that for `COc1ccc(C(=O)N(CCN2CCC(OCC(=O)O)CC2)c2ccc(C)cc2)cc1` was 1200 nM. The same measure, in the same setting: under `O=C(O)COC1CCN(CCN(C(=O)c2ccc(C(F)(F)F)cc2)c2ccc(Cl)cc2)CC1` stands above 10000 nM. Take `COc1cccc(C(=O)N(CCN2CCC(OCC(=O)O)CC2)c2ccc(C)cc2)c1`: the IC50 was found to be 32 nM. Same read-out and setting: under `Cc1ccc(N(CCN2CCC(OCC(=O)O)CC2)C(=O)c2ccc3c(c2)OCO3)cc1` stands 21 nM.

`Cc1ccc(N(CCN2CCC(OCC(=O)O)CC2)C(=O)c2cccc(C)c2)cc1`: the IC50 was 160 nM. Same read-out and setting: the value for `COc1cccc(C(=O)N(CCN2CCC(OCC(=O)O)CC2)c2ccc(Cl)cc2)c1` was 74 nM. Still for that read-out and setting: under `O=C(O)COC1CCN(CCN(C(=O)c2ccc(-c3ccccc3)cc2)c2ccc(Cl)cc2)CC1` stands above 10000 nM; under `Cc1cccc(C(=O)N(CCN2CCC(OCC(=O)O)CC2)c2ccc(Cl)cc2)c1`, 310 nM. The same measure, in the same setting: under `O=C(O)COC1CCN(CCN(C(=O)c2cccc(F)c2)c2ccc(Cl)cc2)CC1` stands 340 nM; under `COc1cccc(C(=O)N(CCN2CCC(OCC(=O)O)CC2)c2ccc(C)cc2)c1OC`, 1600 nM. As for `COc1cc(OC)cc(C(=O)N(CCN2CCC(OCC(=O)O)CC2)c2ccc(C)cc2)c1`, the IC50 was 530 nM. Same read-out and setting: under `Cc1ccc(N(CCN2CCC(OCC(=O)O)CC2)C(=O)c2cccc(F)c2)cc1` stands 160 nM; under `O=C(O)COC1CCN(CCN(C(=O)c2ccc(Cl)cc2)c2ccc(Cl)cc2)CC1`, 1500 nM.
